Assay results from patent US7294646B2, “Maxi-k channel blockers, methods of use and process for making the same” (Merck & Co. Inc., priority 2002, dated 2007).
pIC50: −log10 of the molar value.

Assays:
[1] = test system: Normotensive Dutch Belted rabbits; test: Intraocular pressure (IOP) measurements in rabbits; format: in vivo, rabbit; settings: for reduction of IOP: 25 μl, normal Dutch Belted rabbits; for ocular hypotensive response (significance): all doses (0.5, 0.1 and 0.01%); for ocular hypotensive response (significance) / contralateral effect on IOP (fellow eye): topical, Dutch Belted rabbits; for contralateral effect on IOP (fellow eye): all doses tested (0.5, 0.1 and 0.01%)
Protocol: Intraocular Pressure (IOP) Measurements in Rabbits
Normotensive Dutch Belted rabbits (2.3 kg) of either sex were maintained on a 12-hour light/dark cycle during these experiments. Intraocular pressure (IOP) was measured using a calibrated pneumatonometer (Alcon Applanation Pneumatonograph), and results expressed in millimeters of mercury (mmHg). Before tonometry, one drop of 0.05% proparacaine was applied to the corneas to minimize any discomfort to the animal. Two base-line (control) readings were taken at (−0.5 and 0 hr.) after which Compounds I, Ia or II were administered topically (unilaterally applied into the conjunctival sac) in a 25 μl volume with the contralateral (fellow) eye receiving an equal volume of vehicle. A masked design was utilized, where the person involved in drug administration and measurement of IOP had no knowledge of the solutions' contents. Subsequently, IOP measurements were taken at 0.5, 1, 2, 3, 4, 5 and 6 hr after topical applications of drug. At the end of each day's measurements, stability of the tonometer was determined using the calibrator/verifier.

[2] = target: T1, Maxi-K channel (alpha and beta1 subunits) (Homo sapiens, UniProt Q12791); test: FRET (VIPR) membrane potential assay in HEK-293 cells transfected with alpha and beta1 subunits of the maxi-K channel; format: cell-based
T1 construct: expressed in transfected cells
T1 sequence (Q12791 whole entry): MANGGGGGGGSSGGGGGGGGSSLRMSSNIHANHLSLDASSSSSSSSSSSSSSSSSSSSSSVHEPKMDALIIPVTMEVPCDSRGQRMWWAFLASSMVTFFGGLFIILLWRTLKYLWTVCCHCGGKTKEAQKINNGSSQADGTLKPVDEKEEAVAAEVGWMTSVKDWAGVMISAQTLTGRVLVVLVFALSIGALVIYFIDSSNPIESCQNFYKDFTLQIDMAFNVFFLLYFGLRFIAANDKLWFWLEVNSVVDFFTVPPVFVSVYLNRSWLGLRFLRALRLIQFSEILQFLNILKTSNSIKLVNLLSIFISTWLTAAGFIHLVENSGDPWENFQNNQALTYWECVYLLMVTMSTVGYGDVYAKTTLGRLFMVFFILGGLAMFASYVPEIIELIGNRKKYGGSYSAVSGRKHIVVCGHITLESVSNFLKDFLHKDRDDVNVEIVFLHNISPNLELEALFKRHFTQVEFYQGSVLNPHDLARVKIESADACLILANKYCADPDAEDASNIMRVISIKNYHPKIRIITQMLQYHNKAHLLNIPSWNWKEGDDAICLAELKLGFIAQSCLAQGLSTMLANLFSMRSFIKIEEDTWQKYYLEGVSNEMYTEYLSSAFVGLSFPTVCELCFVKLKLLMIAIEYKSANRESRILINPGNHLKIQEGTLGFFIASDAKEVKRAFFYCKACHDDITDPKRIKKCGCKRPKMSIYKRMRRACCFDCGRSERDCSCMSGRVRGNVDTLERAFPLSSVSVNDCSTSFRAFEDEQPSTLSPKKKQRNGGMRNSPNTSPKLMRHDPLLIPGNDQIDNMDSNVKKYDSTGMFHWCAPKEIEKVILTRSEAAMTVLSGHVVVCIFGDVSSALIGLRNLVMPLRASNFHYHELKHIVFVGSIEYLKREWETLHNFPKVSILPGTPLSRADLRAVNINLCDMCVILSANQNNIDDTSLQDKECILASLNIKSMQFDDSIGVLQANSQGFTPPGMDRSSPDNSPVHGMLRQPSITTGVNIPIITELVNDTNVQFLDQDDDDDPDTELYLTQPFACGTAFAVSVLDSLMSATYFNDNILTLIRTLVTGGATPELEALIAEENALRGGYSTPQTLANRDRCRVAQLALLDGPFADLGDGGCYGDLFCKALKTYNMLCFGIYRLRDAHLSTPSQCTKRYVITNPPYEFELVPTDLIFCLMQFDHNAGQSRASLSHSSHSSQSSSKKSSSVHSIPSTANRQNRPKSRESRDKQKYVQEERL
T1 sequence (Q16558 whole entry partner): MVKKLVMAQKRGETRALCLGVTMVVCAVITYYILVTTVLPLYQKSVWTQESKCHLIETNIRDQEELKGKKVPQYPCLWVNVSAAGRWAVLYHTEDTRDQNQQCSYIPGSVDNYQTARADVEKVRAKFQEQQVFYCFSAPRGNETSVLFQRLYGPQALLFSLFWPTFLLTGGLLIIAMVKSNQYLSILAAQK
Protocol: The identification of inhibitors of the Maxi-K channel is based on the ability of expressed Maxi-K channels to set cellular resting potential after transfection of both alpha and beta1 subunits of the channel in HEK-293 cells and after being incubated with potassium channel blockers that selectively eliminate the endogenous potassium conductances of HEK-293 cells. In the absence of Maxi-K channel inhibitors, the transfected HEK-293 cells display a hyperpolarized membrane potential, negative inside, close to EK (−80 mV) which is a consequence of the activity of Maxi-K channels. Blockade of the Maxi-K channel by incubation with Maxi-K channel blockers will cause cell depolarization. Changes in membrane potential can be determined with voltage-sensitive fluorescence resonance energy transfer (FRET) dye pairs that use two components, a donor coumarin (CC2DMPE) and an acceptor oxanol (DiSBAC2(3)).
Oxanol is a lipophilic anion and distributes across the membrane according to membrane potential. Under normal conditions, when the inside of the cell is negative with respect to the outside, oxanol is accumulated at the outer leaflet of the membrane and excitation of coumarin will cause FRET to occur. Conditions that lead to membrane depolarization will cause the oxanol to redistribute to the inside of the cell, and, as a consequence, a decrease in FRET. […]

[3] = target: T2, high-conductance calcium-activated potassium (Maxi-K) channels (Homo sapiens, UniProt Q12791); test: Patch clamp recordings of Maxi-K channel currents in excised inside-out membrane patches; format: cell-based; settings: 1 nM concentration applied to internal side of excised inside-out patch; held at -80 mV, steps to +50 mV
T2 construct: expressed in transfected cells; host or cells: CHO cells (α alone) or HEK293 cells (α and β1)
T2 sequence (Q12791 whole entry): as the sequence (Q12791 whole entry) above
Source text: Electrophysiological Assays of Compound Effects on High-conductance Calcium-activated Potassium Channels
Patch clamp recordings of currents flowing through high-conductance calcium-activated potassium (Maxi-K) channels were made from membrane patches excised from CHO cells constitutively expressing the α-subunit of the Maxi-K channel or HEK293 cells constitutively expressing both α- and β1-subunits using conventional techniques (Hamill et al., 1981, Pflügers Archiv. 391, 85-100) at room temperature. Glass capillary tubing (Garner #7052) was pulled in two stages to yield micropipettes with tip diameters of approximately 1-2 microns. Pipettes were typically filled with solutions containing (mM): 150 KCl, 10 Hepes (4-(2-hydroxyethyl)-1-piperazine […]), 1 Mg, 0.01 Ca, and adjusted to pH 7.20 with 3.7 mM KOH. After forming a high resistance (>10^9 ohms) seal between the plasma membrane and the pipette, the pipette was withdrawn from the cell, forming an excised inside-out membrane patch. […]
The effects of the compounds of the present invention on Maxi-K channels were examined in excised inside-out membrane patches. […] The fraction of channels blocked in each experiment was calculated from the reduction in peak current caused by application of the specified compound to the internal side of the membrane patch. […]

[4] = 0.01% unilateral topical application
[5] = 0.1% unilateral topical application
[6] = 0.5% unilateral topical application

| Compound | reduction of IOP [1, 4] | reduction of IOP [1, 5] | reduction of IOP [1, 6] | ocular hypotensive response (significance) [1] | contralateral effect on IOP (fellow eye) [1] | pIC50 [2] | decrease in Maxi-K channel currents [3] |
| --- | --- | --- | --- | --- | --- | --- | --- |
| CC(C)[C@@H](C(=O)O[C@H]1C[C@H]2Cc3c([nH]c4ccccc34)[C@]2(C)[C@@]2(C)CC[C@@]34O[C@@H](C(=O)C=C3[C@]12O)C(C)(C)O4)N(C)C [Ib] | 3 mmHg | 3.3 mmHg | 3.7 mmHg | significant | significant contralateral effect | ≥ 7.00 | – |
| CC(C)C[C@@H](C(=O)O[C@H]1C[C@H]2Cc3c([nH]c4ccccc34)[C@]2(C)[C@@]2(C)CC[C@@]34O[C@@H](C(=O)C=C3[C@]12O)C(C)(C)O4)N(C)C [Compound Ia] | 3 mmHg | 3.3 mmHg | 3.7 mmHg | significant | significant contralateral effect | ≥ 7.00 | 88% |
